The results in this text go back to ChEMBL document CHEMBL6127105, “Immunosuppressive Breviane Spiroditerpenoids from Penicillium bialowiezense Isolated from a Medicinal Plant” (J Nat Prod, 2024).

A short description of assay [1]: Immunosuppressive activity against ConA induced T-cells proliferation. It counts as functional, cell-based. As to conditions: T-cell.
Assay [2] in a line: Immunosuppressive activity against LPS induced B-cells proliferation. It counts as functional, cell-based. Particulars: B-cell.

One may read the IC50 as the point on the concentration scale where inhibition reaches its midpoint. As for `CC1=C[C@H](O)[C@@H]2[C@@]3(C)C=CC(=O)C(C)(C)[C@@H]3CC[C@@]2(C)[C@]12Cc1c(c(C)c(C)oc1=O)O2`, the IC50 in assay [1] turned out to be 4.7 µM; in assay [2] it was 7.5 µM.
With `CC1=C[C@H](O)[C@@H]2[C@@]3(C)CCC(=O)C(C)(C)[C@@H]3CC[C@@]2(C)[C@]12Cc1c(c(C)c(C)oc1=O)O2`, the IC50 in assay [1] worked out at 11 µM; in assay [2], 18 µM.
`CC1=CC[C@@H]2[C@@]3(C)C=CC(=O)C(C)(C)[C@@H]3CC[C@@]2(C)[C@]12Cc1c(c(C)c(C)oc1=O)O2`: the IC50 worked out at 4.8 µM in assay [1] and 6.7 µM in assay [2].
With `CC1=C[C@H](O)[C@@H]2[C@@]3(C)[C@H](O)[C@@H](O)[C@H](O)C(C)(C)[C@@H]3CC[C@@]2(C)[C@]12Cc1c(c(C)c(C)oc1=O)O2`, the IC50 in assay [1] was determined as 7.3 µM; in assay [2], 6.3 µM.
In the case of `CC1=C[C@H](O)[C@@H]2[C@@]3(C)CC[C@H](O)C(C)(C)[C@@H]3CC[C@@]2(C)[C@]12Cc1c(c(C)c(C)oc1=O)O2`, the half-inhibitory concentration (IC50) in assay [1] was 4.1 µM; in assay [2], 4.6 µM.
Consider `CC1=C[C@H](O)[C@@H]2[C@@]3(C)[C@H](O)CC(=O)C(C)(C)[C@@H]3CC[C@@]2(C)[C@]12Cc1c(c(C)c(C)oc1=O)O2`, for which the IC50 in assay [1] was 12 µM; in assay [2], 13 µM.
`CC1=CC[C@@H]2[C@@]3(C)CCC(=O)C(C)(C)[C@@H]3CC[C@@]2(C)[C@]12Cc1c(c(C)c(C)oc1=O)O2`: the IC50 in assay [1] and in assay [2] was 17 µM each time.
